The source of these data is patent publication US20170202939A1, “PERSONALIZED CANCER VACCINES AND METHODS THEREFOR” (Washington University, priority 2014, published 2017).

No end group written: not given here.

The target of this experiment is T1, soluble HLA-A*02:01 from TMC expressing A375 melanoma cells (Homo sapiens, UniProt P04439, D140Y/D185E/D98H/E176V/E277Q/G131W/G231S/I119V/I121R/I166T/I218V/L300P/L318F/N151K/N90K/P208A/P217A/Q86G/Q94H/R138H/R169H/T345S).
T1 construct: TMC expressing A375 melanoma cells were transfected with soluble HLA-A*02:01(sHLA-A*02:01); expressed in transfected cells; host or cells: A375 melanoma cells expressing the MEL218 AAS tandem mini-gene construct
Briefly: proteomic analysis (RP-HPLC, LC/MS) of peptides eluted from soluble HLA-A*02:01. The note with it: A375 melanoma cells expressing MEL218 TMC. As for the experimental part: To validate neoantigen processing and presentation, proteomic analysis was performed on peptides eluted from soluble HLA-A*02:01 molecules isolated from melanoma cells expressing a TMC encoding AAS candidates from patient MEL218 tumor (Sercarz, E. E., et al., Annu. Rev. Imunol., 11, 729-766, 1993; Assarsson, E., et al., J. Immunol., 178, 7890-7901, 2007). TMC expressing A375 melanoma cells were transfected with soluble HLA-A*02:01(sHLA-A*02:01) and single cell sorted for a high (>1000 ng/ml in static culture) sHLAA*02:01 producing clone. The sHLA-A*02:01 construct includes a C-terminal VLDLr epitope purification tag ([…] ID NO. 32) that is recognized by the anti-VLDLr mAb (ATCC CRL-2197). This antibody was also used for quantification of sHLA production as the capture antibody in a sandwich ELISA, with an antibody directed against β2-microglobulin (Dako Cytomation) as the detector antibody. Cells were grown in roller bottles and sHLA/peptide complexes were purified from supernatants by affinity chromatography with the anti-VLDLr antibody (Kaabinejadian, S., et al., P.L.o.S. One, 8, e66298, 2013). Eluate fractions containing sHLA/peptide complexes were brought to a final acetic acid concentration of 10%, pooled, and heated to 78° C. in a water bath. Peptides were purified through a 3 kDa molecular weight cutoff cellulose membrane (EMD Millipore) and lyophilized.
Synthetic peptides corresponding to the mutant sequences were resuspended in 10% acetic acid in water at 1 μM, and fractionated by RP-HPLC with an acetonitrile gradient in 10 mM ammonium formate at pH 10. Peptide-containing fractions were dried and resuspended in 25 ul of 10% acetic acid and subjected to nanoscale RP-HPLC at pH 2.5 utilizing an Eksigent nanoLC coupled to a TripleTOF 5600 (AB Sciex) quadrupole time-of-flight mass spectrometer (LC/MS). Information dependent acquisition (IDA) was used to obtain MS and MS/MS fragment spectra for peptide ions. The sequence of each peptide was determined by observed mass and fragment ions, and the 1st dimension fraction number and LC/MS retention times were recorded.
Next, peptides purified from TMC expressing A375 melanoma cells were resuspended in 10% acetic acid and HPLC fractionated under the same conditions and gradient method. Reverse phase HPLC was used to reduce the complexity and determine the elution profile of the pool of soluble HLA-A*02:01 restricted peptides presented by melanoma cells, as well as, the synthetic AAS peptide mixture. FIGS. 40A and 40E illustrate RP-HPLC fractionation of HLA-A*02:01 peptides eluted from the AAS-TMC expressing melanoma cell line (solid trace) and the synthetic peptide mixture containing MEL218 neoantigen candidates (dashed trace), with fraction 50 (FIG. 40A) and fraction 44 (FIG. 40E) indicated. […]

On to IILVAVPHV, for which the “HLA-A*02:01 presentation by LC/MS of eluted peptides” value was “confirmed HLA-A*02:01 presentation”.

As for MLGEQLFPL, the “HLA-A*02:01 presentation by LC/MS of eluted peptides” value is “demonstrated the HLA-A*02:01 presentation”.
